Measured values as given in patent publication US20070281992A1, “COMBINATION OF GYRASE B INHIBITORS AND PROTEIN SYNTHESIS INHIBITORS AND USES THEREOF” (priority 2006, published 2007).
Where two headings read alike, the source gives them in different places.

Legend:
Assay type in all cases: cell-based
[1] = test system: Unconfirmed Vancomycin-intermediate Staphylococcus aureus Isolates; assay: MIC assay (NCCLS broth dilution), unconfirmed VISA isolates; conditions: Staphylococcus aureus; 6 unconfirmed VISA isolates (vancomycin MIC 4 ug/ml); combinations at 2.5:1
Experimental: (§1) Antibiotics: novobiocin, tetracycline, minocycline, oxacillin, and vancomycin were all purchased from Sigma-Aldrich. Linezolid was obtained from Pfizer, Inc. Novobiocin/tetracycline and novobiocin/minocycline were tested in a 2.5:1 ratio to mimic the serum levels. (Vavra, J. J., 1967, Development of resistance to novobiocin, tetracycline, and novobiocin-tetracycline combinations in Staphylococcus aureus populations, J. Bacteriol 93(3):801). Compounds were tested across a concentration range consisting of 11 two-fold serial dilutions of test agent.
(§2) Stock solutions were prepared in sterile deionized water; novobiocin stock concentration was 1600 μg/mL and all other drugs stock solutions were prepared at 640 μg/mL. The stock solutions were allowed to sit at room temperature for one hour to auto-sterilize prior to use in the test. All compounds were in solution in water. The control agent was vancomycin hydrochloride, Sigma Chemical Lot # 015K0825.
(§3) The test organisms for the assay were 52 MSSA, 52 MRSA, 8 VISA, 7 VISE, and 3 LRSA isolates. Quality control strains included Staphylococcus aureus 0100 (ATCC 29213) and Enterococcus faecalis (ATCC 29212).
(§4) The MIC assay was performed according to published NCCLS guidelines. (National Committee for Clinical Laboratory Standards, Methods for Dilution Antimicrobial Susceptibility Tests for Bacteria that Grow Aerobically; Approved Standard-Sixth Edition, NCCLS Document M7-A6 [ISBN 1-56238-486-4], NCCLS, 940 West Valley Road, Suite 1400, Wayne, Pa. 19087-1898 USA, 2003). The test medium was Mueller Hinton II Broth for all organisms.

[2] = test system: Methicillin-Susceptible Staphylococcus aureus Isolates; assay: MIC assay (NCCLS broth dilution), MSSA clinical isolates; conditions: for MIC: read-out: Minimal Inhibitory Concentration
Experimental: as §1, §2, §3, §4

[3] = test system: Vancomycin-intermediate Staphylococcus epidermidis Isolates; assay: MIC assay (NCCLS broth dilution), VISE isolates; conditions: for MIC: read-out: Minimal Inhibitory Concentration
Experimental: as §1, §2, §3, §4

[4] = Staphylococcus aureus, 52 MSSA isolates, combinations at 2.5:1, given as NB/partner

MIC50 [1]: 0.06 µg/mL
MIC Range ([2]; 52 MSSA isolates, Mueller Hinton II Broth, combinations at 2.5:1, given as NB/partner): .06 to .12 µg/mL
MIC ([2]; Staphylococcus aureus, MSSA isolate 133, 03MAR06): 0.06 µg/mL
MIC ([2]; Staphylococcus aureus, MSSA isolate 134, 03MAR06): 0.06 µg/mL
MIC ([2]; Staphylococcus aureus, MSSA isolate 135, 03MAR06): 0.06 µg/mL
MIC ([2]; Staphylococcus aureus, MSSA isolate 753, 22FEB06): 0.12 µg/mL
MIC ([2]; Staphylococcus aureus, MSSA isolate 754, 22FEB06): 0.12 µg/mL
MIC ([2]; Staphylococcus aureus, MSSA isolate 754, 24FEB06): 0.12 µg/mL
MIC ([2]; Staphylococcus aureus, MSSA isolate 755, 22FEB06): 0.12 µg/mL
MIC ([2]; Staphylococcus aureus, MSSA isolate 756, 03MAR06): 0.06 µg/mL
MIC ([2]; Staphylococcus aureus, MSSA isolate 779, 22FEB06): 0.12 µg/mL
MIC ([2]; Staphylococcus aureus, MSSA isolate 780, 03MAR06): 0.12 µg/mL
MIC ([2]; Staphylococcus aureus, MSSA isolate 781, 03MAR06): 0.06 µg/mL
MIC ([2]; Staphylococcus aureus, MSSA isolate 782, 22FEB06): 0.12 µg/mL
MIC ([2]; Staphylococcus aureus, MSSA isolate 783, 22FEB06): 0.12 µg/mL
MIC ([2]; Staphylococcus aureus, MSSA isolate 784, 22FEB06): 0.12 µg/mL
MIC ([2]; Staphylococcus aureus, MSSA isolate 785, 22FEB06): 0.12 µg/mL
MIC ([2]; Staphylococcus aureus, MSSA isolate 786, 22FEB06): 0.12 µg/mL
MIC ([2]; Staphylococcus aureus, MSSA isolate 787, 22FEB06): 0.12 µg/mL
MIC ([2]; Staphylococcus aureus, MSSA isolate 788, 22FEB06): 0.12 µg/mL
MIC ([2]; Staphylococcus aureus, MSSA isolate 789, 24FEB06): 0.12 µg/mL
MIC ([2]; Staphylococcus aureus, MSSA isolate 790, 24FEB06): 0.12 µg/mL
MIC ([2]; Staphylococcus aureus, MSSA isolate 791, 24FEB06): 0.12 µg/mL
MIC ([2]; Staphylococcus aureus, MSSA isolate 792, 03MAR06): 0.06 µg/mL
MIC ([2]; Staphylococcus aureus, MSSA isolate 793, 24FEB06): 0.12 µg/mL
MIC ([2]; Staphylococcus aureus, MSSA isolate 794, 24FEB06): 0.12 µg/mL
MIC ([2]; Staphylococcus aureus, MSSA isolate 994, 22FEB06): 0.12 µg/mL
MIC ([2]; Staphylococcus aureus, MSSA isolate 995, 03MAR06): 0.12 µg/mL
MIC ([2]; Staphylococcus aureus, MSSA isolate 996, 22FEB06): 0.06 µg/mL
MIC ([2]; Staphylococcus aureus, MSSA isolate 997, 22FEB06): 0.12 µg/mL
MIC ([2]; Staphylococcus aureus, MSSA isolate 998, 03MAR06): 0.06 µg/mL
MIC ([2]; Staphylococcus aureus, MSSA isolate 999, 22FEB06): 0.12 µg/mL
MIC ([2]; Staphylococcus aureus, MSSA isolate 1000, 24FEB06): 0.12 µg/mL
MIC ([2]; Staphylococcus aureus, MSSA isolate 1001, 24FEB06): 0.12 µg/mL
MIC ([2]; Staphylococcus aureus, MSSA isolate 1002, 24FEB06): 0.12 µg/mL
MIC ([2]; Staphylococcus aureus, MSSA isolate 1003, 03MAR06): 0.06 µg/mL
MIC ([2]; Staphylococcus aureus, MSSA isolate 1005, 24FEB06): 0.06 µg/mL
MIC ([2]; Staphylococcus aureus, MSSA isolate 1006, 24FEB06): 0.12 µg/mL
MIC ([2]; Staphylococcus aureus, MSSA isolate 1007, 24FEB06): 0.12 µg/mL
MIC ([2]; Staphylococcus aureus, MSSA isolate 1008, 24FEB06): 0.06 µg/mL
MIC ([2]; Staphylococcus aureus, MSSA isolate 1009, 24FEB06): 0.12 µg/mL
MIC ([2]; Staphylococcus aureus, MSSA isolate 1131, 24FEB06): 0.06 µg/mL
MIC ([2]; Staphylococcus aureus, MSSA isolate 1132, 03MAR06): 0.06 µg/mL
MIC ([2]; Staphylococcus aureus, MSSA isolate 1133, 24FEB06): 0.12 µg/mL
MIC ([2]; Staphylococcus aureus, MSSA isolate 1134, 24FEB06): 0.12 µg/mL
MIC ([2]; Staphylococcus aureus, MSSA isolate 1654, 03MAR06): 0.12 µg/mL
MIC ([2]; Staphylococcus aureus, MSSA isolate 1656, 03MAR06): 0.06 µg/mL
MIC ([2]; Staphylococcus aureus, MSSA isolate 1662, 03MAR06): 0.06 µg/mL
MIC ([2]; Staphylococcus aureus, MSSA isolate 1663, 03MAR06): 0.12 µg/mL
MIC ([2]; Staphylococcus aureus, MSSA isolate 1666, 03MAR06): 0.06 µg/mL
MIC ([2]; Staphylococcus aureus, MSSA isolate 1667, 03MAR06): 0.12 µg/mL
MIC ([2]; Staphylococcus aureus, MSSA isolate 1668, 03MAR06): 0.06 µg/mL
MIC ([2]; Staphylococcus aureus, MSSA isolate 1671, 03MAR06): 0.06 µg/mL
MIC ([2]; Staphylococcus aureus, MSSA isolate 1728, 03MAR06): 0.06 µg/mL
MIC ([2]; Staphylococcus aureus, MSSA isolate 1728, retest 09MAR06): 0.06 µg/mL
MIC50 [2, 4]: 0.12 µg/mL
MIC90 [2, 4]: 0.12 µg/mL
MIC Range ([3]; 4 VISE isolates, combinations at 2.5:1): .06 to .25 µg/mL
MIC ([3]; Staphylococcus epidermidis, VISE isolate 2020, 09MAR06): 0.12 µg/mL
MIC ([3]; Staphylococcus epidermidis, VISE isolate 2021, 09MAR06): 0.06 µg/mL
MIC ([3]; Staphylococcus epidermidis, VISE isolate 2022, 03MAR06): 0.25 µg/mL
MIC ([3]; Staphylococcus epidermidis, VISE isolate 2023, 03MAR06): 0.06 µg/mL
MIC50 ([3]; Staphylococcus epidermidis, 4 VISE isolates, combinations at 2.5:1): 0.06 µg/mL
Compound: CN(C)c1ccc(O)c2c1C[C@H]1C[C@H]3[C@H](N(C)C)C(O)=C(C(N)=O)C(=O)[C@@]3(O)C(O)=C1C2=O [MI, minocycline]
